Patent publication US11548855B2, “Pyrazole amide compound and application thereof, and fungicide” (Shandong United Pesticide Industry Co. Ltd., priority 2017, dated 2023)

Key:
[1] = system: corn rust (Puccinia sorghi); experiment: Greenhouse pot test, corn rust; type: in vivo; details: Puccinia sorghi, 168 h, read-out: Control effect (%) Corn rust
Description: (§1) Test method: each of the test compounds in Table 1 was dispensed to 5 wt % emulsifiable concentrate (hereinafter referred to as 5% EC). The greenhouse pot test was used in each experiment, and the effective concentrations of each compound were illustrated in Table 1.
Corn rust: two-three leaf stage potted corn seedling with uniform growth was selected and made foliar spray treatment with 5% EC, the blank control sprayed with clean water was additionally arranged, three replicates were carried out. After 24 h, the leaves of the host plants were inoculated with sporangial suspensions of the fungi corn rust (Puccinia sorghi), the plants were stored in humidity chamber (temperature: lighting 25° C., dark 20° C., relative humidity 95-100%) and then transferred to greenhouse (25±1° C.) 24 h after infection. After 7 days, the screening results were investigated according to the disease incidence condition of blank control.
(§2) The investigation method: “Guidelines for the field efficacy trials of pesticides” was adopted as the grading standard, and the control effect in a unit of % was calculated based on the disease index. Disease index=Σ(number of diseased leaves at each grade×relative grade value)×100/(total number of leaves×9); Control effect (%)=(disease index of control−disease index of treated)×100/disease index of control;
(§3) The compounds provided by the present disclosure and some control compounds were tested by the same methods in the Test example 1, except that the effective concentrations of the compounds in this Test example are shown in Table 2.

[2] = system: wheat powdery mildew (Erysiphe graminis); experiment: Greenhouse pot test, wheat powdery mildew; type: in vivo; details: Blumeria graminis, 168 h, read-out: Control effect (%) Wheat powdery mildew
Source text: as §1
Wheat powdery mildew: two-leaf stage potted wheat seedling with uniform growth was selected and made foliar spray treatment with 5% EC, the blank control sprayed with clean water was additionally arranged, three replicates were carried out. After 24 h, the leaves of the host plants were inoculated by shake-down method with sporangial suspensions of the fungi wheat powdery mildew (Erysiphe graminis), the plants were stored in a greenhouse (25±1° C.). After 7 days, the screening results were investigated according to the disease incidence condition of blank control.
as §2, §3

[3] = system: soybean rust; experiment: Field trial, soybean rust; type: in vivo, Phakopsora pacchyrhizi Sydow; details: sprayed 2 times
Description: III. The Soybean Rust Test Method:
(§4) Spray method: Stein and leaf spraying (Applicator: Xinkangda lithium battery electric sprayer).
Test crops: soybean (cultivars: Glycine max(L) Merr)
(§5) The test was carried out in Shenyang, the test field was loam with rich organic matters and normal management of fertilizer and water, and no other pesticide was applied during the test.
(§6) The arrangement of the test plot was random block permutation; the area of the test plot: 25 m^2; repeat times: 3 times; spray time and frequency: 2 times on Aug. 11, 2018 and Aug. 21, 2018 respectively. Spray dosage: each treatment was repeated 3 times, the total water consumption was 8 L. No other pesticide was applied during the test. […] 15-20 days after the second spray treatment, the control effect was investigated.
The incidence of disease spots in each plot was investigated by diagonal selecting 5 samples/plot and 20 plants/samples, 10 leaves/plant was surveyed.
(§7) The grading standard of crop disease was as follows:
(§8) Grade 0: no leaf-spot area;
(§9) Grade 1: the ratio of leaf-spot area to leaf area is less than 5%;
(§10) Grade 3: the ratio of leaf-spot area to leaf area is between 6-25%;
(§11) Grade 5: the ratio of leaf-spot area to leaf area is between 26-50%;
(§12) Grade 7: the ratio of leaf-spot area to leaf area is between 51-75%;
(§13) Grade 9: the ratio of leaf-spot area to leaf area is between 76-100%;
(§14) According to the relevant content of the “Guidelines for the field efficacy trials of pesticides of the People's Republic of China (PRC)”, the disease index was calculated according to the grading standard, and the control effect in a unit of % was calculated based on the disease index, and the test data of significance analysis was performed by using DPS evaluation system (DMRT).

[4] = system: soybean rust (Phakopsora pacchyrhizi Sydow); experiment: Greenhouse pot test, soybean rust; type: in vivo; details: Glycine max, 168 h, read-out: Control effect (%) Soybean rust
Description: as §1
Soybean rust: two-leaf stage potted soybean seedling with uniform growth was selected and made foliar spray treatment with 5% EC, the blank control sprayed with clean water was additionally arranged, three replicates were carried out. After 24 h, the leaves of the host plants were inoculated with sporangial suspensions of the fungi soybean rust (Phakopsora pacchyrhizi Sydow), the plants were stored in humidity chamber (temperature 20-25° C., relative humidity>95%) and then transferred to greenhouse (25±1° C.) 8-16 h after infection. After 7 days, the screening results were investigated according to the disease incidence condition of blank control.
as §2, §3

[5] = system: cucumber powdery mildew; experiment: Greenhouse pot test, cucumber powdery mildew; type: in vivo; details: Cucumis sativus, 192 h, greenhouse pot, read-out: Control effect (%) Cucumber powdery mildew
Description: as §1
Cucumber powdery mildew: cucumber seedling in a true leaf period with uniform growth was selected, and dried in the shade for 24 h after spray treatment. Fresh cucumber powdery mildew spores on the cucumber leaves were collected and washed, and filtered through a double gauze to prepare a spores suspension with concentration of about 100,000/mL, then spray inoculation was applied. The test materials inoculated were moved into a greenhouse (lighting 21-23° C.), after 8 days, the grading investigation was carried out according to the disease incidence condition of blank control, and the control effect in a unit of % was calculated according to disease index.
as §2, §3

[6] = system: wheat powdery mildew; experiment: Field trial, wheat powdery mildew; type: in vivo, Erysiphe graminis; details: 100 mg/L, sprayed once
Description: II. The Wheat Powdery Mildew Test Method:
as §4
Test crops: wheat (cultivars: Liaochun 10)
as §5
The arrangement of the test plot was random block permutation; the area of the test plot: 15 m^2; repeat times: 3 times; spray time and frequency: Sep. 17, 2018, once. Spray dosage: each treatment was repeated 3 times, the total water consumption was 8 L. No other pesticide was applied during the test.
The incidence of disease spots in each plot was investigated by diagonal selecting 4 samples/plot and 20 plants/samples, and the first leaf below the flag leaf of each plant was investigated.
as §7, §8, §9, §10, §11, §12, §13, §14

[7] = system: cucumber powdery mildew; experiment: Field trial, cucumber powdery mildew; type: in vivo; details: 100 mg/L, sprayed twice
Description: I. Cucumber Powdery Mildew Test Method:
Spray method: Stein and leaf spray (Applicator: Xinkangda lithium battery electric sprayer).
Test crop: cucumber (cultivars: Tianjiao7)
as §5
as §6, with “15” for “25”, “period between Sep. 28,” for “2 times on Aug. 11,”, “Oct. 11, 2018, twice.” for “Aug. 21, 2018 respectively.”, “second” for “second spray”, “incidence of disease spots in each plot” for “control effect”
The incidence of disease spots in each plot was investigated by randomly selecting 4 samples/plot and 2 plants/samples, all leaves/plant, the incidence of the whole plant was recorded by counting the number of disease leaves and determining the incidence grade.
Grading standard (in units of leaves):
as §8, §9
Grade 3: the ratio of leaf-spot area to leaf area is between 6-10%;
Grade 5: the ratio of leaf-spot area to leaf area is between 11-20%;
Grade 7: the ratio of leaf-spot area to leaf area is between 21-40%;
Grade 9: the ratio of leaf-spot area to leaf area is more than 40%;
as §14

[8] = system: wheat powdery mildew; details: cited from earlier work
[9] = system: wheat powdery mildew; details: cited from earlier work; remark: listed apart in the source

Cn1cc(C(=O)Nc2ccccc2Oc2ccc(C(F)(F)F)cc2I)c(C(F)F)n1 [Compound 4]
pest or weed control at 1.5625 µg/mL ([1]; 1.5625 mg/L): 50%
pest or weed control at 3.125 µg/mL ([1]; 3.1250 mg/L): 90%
pest or weed control at 6.25 µg/mL ([1]; 6.25 mg/L): 98%
pest or weed control at 25 µg/mL ([1]; 25 mg/L): 100%
pest or weed control at 100 µg/mL ([1]; 100 mg/L): 100%
pest or weed control at 1.5625 µg/mL ([2]; 1.5625 mg/L): 30%
pest or weed control at 3.125 µg/mL ([2]; 3.1250 mg/L): 70%
pest or weed control at 6.25 µg/mL ([2]; 6.25 mg/L): 10%
pest or weed control at 25 µg/mL ([2]; 25 mg/L): 25%
pest or weed control at 100 µg/mL ([2]; 100 mg/L): 60%
Control effect (%) ([3]; dosage 50 mg/L): 80.14%
Control effect (%) ([3]; dosage 75 mg/L): 85.62%
Control effect (%) ([3]; dosage 100 mg/L): 93.11%
pest or weed control at 1.5625 µg/mL ([4]; 1.5625 mg/L): 98%
pest or weed control at 3.125 µg/mL ([4]; 3.1250 mg/L): 100%
pest or weed control at 6.25 µg/mL ([4]; 6.25 mg/L): 100%
pest or weed control at 25 µg/mL ([4]; 25 mg/L): 100%
pest or weed control at 100 µg/mL ([4]; 100 mg/L): 100%

OC(Cc1ccccc1Cl)(Cn1nc[nH]c1=S)C1(Cl)CC1 (stereo not shown) [Prothioconazole]
pest or weed control at 1 µg/mL ([2]; 1 mg/L): 30%
pest or weed control at 2 µg/mL ([2]; 2 mg/L): 50%
pest or weed control at 4 µg/mL ([2]; 4 mg/L): 70%
pest or weed control at 1 µg/mL ([5]; 1 mg/L): 75%
pest or weed control at 2 µg/mL ([5]; 2 mg/L): 80%
pest or weed control at 4 µg/mL ([5]; 4 mg/L): 90%
pest or weed control at 6.25 µg/mL ([5]; 6.25 mg/L): 85%
pest or weed control at 25 µg/mL ([5]; 25 mg/L): 98%
pest or weed control at 100 µg/mL ([5]; 100 mg/L): 100%
Control effect (%) Wheat powdery mildew [6]: 93%
Control effect (%) ([3]; dosage 50 mg/L): 91.15%
pest or weed control at 0.5 µg/mL ([4]; 0.5 mg/L): 95%
pest or weed control at 1 µg/mL ([4]; 1 mg/L): 100%
pest or weed control at 2 µg/mL ([4]; 2 mg/L): 100%
pest or weed control at 4 µg/mL ([4]; 4 mg/L): 100%

CON(C(=O)c1cn(C)nc1C(F)F)C(C)Cc1c(Cl)cc(Cl)cc1Cl (stereo not shown) [Pydiflumetofen]
Control effect (%) Wheat powdery mildew [6]: 91.0%
Control effect (%) Cucumber powdery mildew [7]: 86.0%

CNC(=O)/C(=N/OC)c1ccccc1CO/N=C(C)/C=C/c1c(Cl)cccc1Cl [fenaminstrobin]
activity against wheat powdery mildew in greenhouse pot test [8]: extremely high activity
control effect in field test [9]: worse
